Measured values taken from patent US20260272883A1, “SOLID STATE FORMS OF PIRTOBRUTINIB AND PROCESS FOR THE PREPARATION OF INTERMEDIATE THEREOF” (DR. REDDY'S LABORATORIES LIMITED, priority 2023, published 2026).

Key:
[1] = Stability of crystalline form P1 under 80% RH (open condition) and illumination (300-400 nm); assay type: physicochemical
[2] = Stability of crystalline form P1 at 25° C./60% RH and 40° C./75% RH for 3 months (closed conditions); assay type: physicochemical

Purity ([1]; 0 Day): 98.9%
Purity ([1]; Exposure at 80% RH for 1 day (Open Condition)): 98.9%
Purity ([1]; Illumination (300-400 nm) for 24 hours): 98.9%
Stability ([1]; high humidity and illumination conditions): stable
Physical and chemical stability ([1]; kept at 80% RH in open condition): physically and chemically stable
Physical and chemical stability ([1]; kept under illumination (300-400 nm) for 24 hours): physically and chemically stable
Purity ([2]; 0 Day): 98.9%
Stability ([2]; 3 months at accelerated conditions): stable
Purity ([2]; 25° C./60% RH (Closed Condition) (3 months)): 98.7%
Physical and chemical stability ([2]; 25° C./60% RH for 3 months under closed conditions): physically and chemically stable
Purity ([2]; 40° C./75% RH (Closed Condition) (3 months)): 98.9%
Stability ([2]; 40° C./75% RH for 3 months under closed conditions): stable
Structure (SMILES): COc1ccc(F)cc1C(=O)NCc1ccc(-c2nn([C@@H](C)C(F)(F)F)c(N)c2C(N)=O)cc1 [Crystalline form P1 of Pirtobrutinib, (S)-5-amino-3-(4-((5-fluoro-2-methoxybenzamido)methyl)phenyl)-1-(1,1,1-trifluoropropan-2-yl)-1H-pyrazole-4-carboxamide]
